Data reported in US10077261B2, “Imidazolin-5-one derivative useful as FASN inhibitors for the treatment of cancer” (Janssen Pharmaceutica NV, priority 2012, dated 2018).

Columns and labels:
[1] = molecular target: T1, hFASN enzyme (full length) (Homo sapiens, UniProt P49327); assay: Fatty Acid Synthase (FASN) inhibition scintillation proximity assay; assay type: biochemical; details: for inhibition at 10 µM: read-out: Human FASN % inhibition @ 10 μM, 10 μM test compound; for IC50: read-out: Human FASN pIC50 (converted)
T1 construct: 10 μL hFASN enzyme (full length, 300 ng, purified in house); made in house
T1 sequence (P49327 whole entry): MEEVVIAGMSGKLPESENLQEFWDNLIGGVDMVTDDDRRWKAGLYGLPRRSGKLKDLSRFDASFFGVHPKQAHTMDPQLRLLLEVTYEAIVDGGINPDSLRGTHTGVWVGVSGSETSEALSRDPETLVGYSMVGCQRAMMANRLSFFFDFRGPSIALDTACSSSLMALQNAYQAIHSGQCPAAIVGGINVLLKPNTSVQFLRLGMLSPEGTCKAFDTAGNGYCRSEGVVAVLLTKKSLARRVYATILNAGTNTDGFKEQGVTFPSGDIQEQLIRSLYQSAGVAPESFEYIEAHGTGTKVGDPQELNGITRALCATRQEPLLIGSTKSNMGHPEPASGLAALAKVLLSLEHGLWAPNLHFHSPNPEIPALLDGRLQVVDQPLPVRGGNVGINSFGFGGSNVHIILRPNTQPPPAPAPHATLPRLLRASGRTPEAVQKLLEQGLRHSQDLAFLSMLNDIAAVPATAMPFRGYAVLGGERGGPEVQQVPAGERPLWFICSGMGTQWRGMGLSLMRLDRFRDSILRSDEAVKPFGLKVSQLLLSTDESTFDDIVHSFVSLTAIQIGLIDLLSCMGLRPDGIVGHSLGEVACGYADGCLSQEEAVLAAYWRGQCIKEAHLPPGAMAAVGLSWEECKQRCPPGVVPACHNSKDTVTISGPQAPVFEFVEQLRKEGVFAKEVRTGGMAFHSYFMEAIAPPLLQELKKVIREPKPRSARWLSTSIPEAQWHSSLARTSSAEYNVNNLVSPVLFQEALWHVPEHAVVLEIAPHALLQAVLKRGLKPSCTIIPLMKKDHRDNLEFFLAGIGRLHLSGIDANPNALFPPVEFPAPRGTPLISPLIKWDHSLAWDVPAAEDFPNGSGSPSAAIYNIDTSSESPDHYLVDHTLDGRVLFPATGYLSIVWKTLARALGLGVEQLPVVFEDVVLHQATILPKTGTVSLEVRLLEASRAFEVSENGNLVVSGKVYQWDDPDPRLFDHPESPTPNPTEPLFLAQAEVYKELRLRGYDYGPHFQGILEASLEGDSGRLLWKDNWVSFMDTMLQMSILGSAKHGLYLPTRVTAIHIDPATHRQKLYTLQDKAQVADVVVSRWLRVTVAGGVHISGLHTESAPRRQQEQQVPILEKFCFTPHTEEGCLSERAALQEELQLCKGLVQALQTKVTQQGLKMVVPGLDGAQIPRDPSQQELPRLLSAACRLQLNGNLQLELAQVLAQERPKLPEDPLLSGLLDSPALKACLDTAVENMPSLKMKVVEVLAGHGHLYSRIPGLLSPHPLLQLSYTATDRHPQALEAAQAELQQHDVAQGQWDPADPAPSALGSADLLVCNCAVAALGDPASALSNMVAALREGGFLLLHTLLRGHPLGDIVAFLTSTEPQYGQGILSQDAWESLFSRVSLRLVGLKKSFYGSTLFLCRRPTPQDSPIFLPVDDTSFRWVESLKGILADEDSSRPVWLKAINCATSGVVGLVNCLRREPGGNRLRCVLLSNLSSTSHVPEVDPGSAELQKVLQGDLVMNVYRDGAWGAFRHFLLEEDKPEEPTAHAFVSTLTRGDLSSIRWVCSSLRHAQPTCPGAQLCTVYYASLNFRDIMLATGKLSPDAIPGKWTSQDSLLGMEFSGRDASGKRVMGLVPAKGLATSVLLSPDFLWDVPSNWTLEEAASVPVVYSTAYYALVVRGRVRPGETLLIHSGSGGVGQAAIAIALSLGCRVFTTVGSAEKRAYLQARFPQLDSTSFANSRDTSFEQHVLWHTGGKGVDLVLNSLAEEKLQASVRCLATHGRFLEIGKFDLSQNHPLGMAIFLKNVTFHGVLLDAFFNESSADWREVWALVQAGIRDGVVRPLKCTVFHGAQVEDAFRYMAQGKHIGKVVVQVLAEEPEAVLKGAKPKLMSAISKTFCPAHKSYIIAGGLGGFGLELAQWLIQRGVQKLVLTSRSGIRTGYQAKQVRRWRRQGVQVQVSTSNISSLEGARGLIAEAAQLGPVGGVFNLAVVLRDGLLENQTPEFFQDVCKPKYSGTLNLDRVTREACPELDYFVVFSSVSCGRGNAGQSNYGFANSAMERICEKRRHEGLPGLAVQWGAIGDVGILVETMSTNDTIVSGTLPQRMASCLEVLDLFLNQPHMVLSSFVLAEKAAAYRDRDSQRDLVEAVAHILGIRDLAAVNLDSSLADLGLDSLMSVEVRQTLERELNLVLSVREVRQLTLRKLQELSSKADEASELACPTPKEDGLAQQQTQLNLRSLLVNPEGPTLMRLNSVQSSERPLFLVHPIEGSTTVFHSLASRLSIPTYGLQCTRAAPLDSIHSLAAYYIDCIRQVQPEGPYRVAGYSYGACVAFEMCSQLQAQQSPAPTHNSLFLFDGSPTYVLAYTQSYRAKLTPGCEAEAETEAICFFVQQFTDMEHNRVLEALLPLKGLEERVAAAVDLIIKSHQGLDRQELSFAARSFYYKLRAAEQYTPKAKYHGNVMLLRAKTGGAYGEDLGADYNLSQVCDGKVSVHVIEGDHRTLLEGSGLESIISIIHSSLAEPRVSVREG
How it was run: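 Read-out relies on hydrophobic ³H-palmitate product, formed from ³H-acetyl-CoA and malonyl-CoA, binding streptavidin imaging beads, measured at 610±20 nm after at least 24 h. Full-length enzyme (300 ng) in phosphate buffer pH 7.5 with DTT; eight compound concentrations, 0.01–30 μM.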

A2780 ovarian cells [2] = assay: A2780 ovarian cell proliferation assay in lipid reduced medium, with palmitate (MTT); assay type: cell-based; details: Homo sapiens, A2780, 96 h; read-out: pIC50 A2780 Ovarian Cell, With Palmitate (converted)
How it was run: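 In this palmitate-supplemented format, compound dilutions (30 μM down to 0.01 μM) are added to cells in lipid-reduced serum with 25 μM palmitate, 0.2% fatty-acid-free BSA and 0.25% ethanol. After four days (96 h) MTT absorbance at 544 nm is recorded and fitted by minimum sum of squares.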

A2780 ovarian cells [3] = assay: A2780 ovarian cell proliferation assay in lipid reduced medium, without palmitate (MTT); assay type: cell-based; details: Homo sapiens, A2780, 96 h; read-out: pIC50 A2780 Ovarian Cell, Without Palmitate (converted)

Row | inhibition at 10 µM [1] [%] | IC50 [1] [µM] | IC50 (A2780 ovarian cells [2]) [µM] | IC50 (A2780 ovarian cells [3]) [µM] | SMILES
1 | 9 | > 10 | > 10 | > 10 | COC(=O)N1CC2(C1)N=C(c1ccc(-c3ccc4cccnc4c3)cc1)N(C[C@@H]1CCN(S(C)(=O)=O)C1)C2=O [compound 900, (S)-methyl 7-((1-(methylsulfionyl)pyrrolidin-3-yl)methyl)-8-oxo-6-(4-(quinolin-7-yl)phenyl)-2,5,7-triazaspiro[3.4]oct-5-ene-2-carboxylate]
2 | 27 | > 10 | > 10 | > 10 | COC(=O)N1CC2(C1)N=C(c1ccc(-c3ccc4c(cnn4C)c3)cc1)N(C[C@@H]1CCN(C(=O)c3nccs3)C1)C2=O [compound 923, (R)-methyl 6-(4-(1-methyl-1H-indazol-5-yl)phenyl)-8-oxo-7-((1-(thiazole-2-carbonyl)pyrrolidin-3-yl)methyl)-2,5,7-triazaspiro[3.4]oct-5-ene-2-carboxylate]
3 | 54 | 7.59 | > 10 | > 10 | N#CCCn1ncc2cc(-c3ccc(C4=NC5(CC5)C(=O)N4CC4CN(C(=O)C5CC5)C4)cc3)ccc21 [compound 533, 3-{5-[4-(6-{[1-(Cyclopropylcarbonyl)azetidin-3-yl]methyl}-7-oxo-4,6-diazaspiro[2.4]hept-4-en-5-yl)phenyl]-1H-indazol-1-yl}propanenitrile]
4 | 24 | > 10 | ~6.17 | 3.89 | Cc1cc(-c2ccc(-c3ccnn3CC(C)C)cc2)ccc1C1=NC2(CC2)C(=O)N1CC1CN(C(=O)C2(C)CC2)C1 [compound 785]
5 | 108 | 0.204 | 9.12 | ~2.4 | O=C(N1CCCC1)N1CC[C@@H](CN2C(=O)C3(CCCC3)N=C2c2ccc(-c3ccc4occc4c3)cc2)C1 [compound 117, 2-[4-(1-Benzofuran-5-yl)phenyl]-3-{[(3S)-1-(pyrrolidin-1-ylcarbonyl)pyrrolidin-3-yl]methyl}-1,3-diazaspiro[4.4]non-1-en-4-one]
6 | 83 | 1.78 | > 10 | 3.8 | O=C(C1CC1)N1CC(CN2C(=O)C3(CC3)N=C2c2ccc(-c3ccc4nn(CCO)cc4c3)cc2)C1 [compound 549, 6-{[1-(Cyclopropylcarbonyl)azetidin-3-yl]methyl}-5-{4-[2-(2-hydroxyethyl)-2H-indazol-5-yl]phenyl}-4,6-diazaspiro[2.4]hept-4-en-7-one]
7 | 74 | 2.57 | > 10 | 2.51 | Cn1c(-c2ccc(C3=NC4(CC4)C(=O)N3CC3CN(C(=O)C4CC4)C3)c(F)c2)nc2ccccc21 [compound 648, 6-{[1-(Cyclopropylcarbonyl)azetidin-3-yl]methyl}-5-[2-fluoro-4-(1-methyl-1H-benzimidazol-2-yl)phenyl]-4,6-diazaspiro[2.4]hept-4-en-7-one]
8 | 115 | 0.0912 | > 10 | 2.19 | O=C(C1CC1)N1CC[C@@H](CN2C(=O)C3(CCCC3)N=C2c2ccc(-c3ccc(Cl)cc3)cc2F)C1 [compound 121, 2-(4′-Chloro-3-fluorobiphenyl-4-yl)-3-{[(3R)-1-(cyclopropylcarbonyl)pyrrolidin-3-yl]methyl}-1,3-diazaspiro[4.4]non-1-en-4-one]
9 | 97 | 0.263 | > 10 | 0.525 | Cc1cc(-c2ccc3c(cnn3C)c2)ccc1C1=NC2(CC2)C(=O)N1CC1CN(C(=O)C2(N)CC2)C1 [compound 564, 6-({1-[(1-Aminocyclopropyl)carbonyl]azetidin-3-yl}methyl)-5-[2-methyl-4-(1-methyl-1H-indazol-5-yl)phenyl]-4,6-diazaspiro[2.4]hept-4-en-7-one]
10 | 80 | 1.74 | > 10 | 3.31 | Cc1cc(-c2ccc3c(Cl)nn(C)c3c2)ccc1C1=NC2(CC2)C(=O)N1CC1CN(C(=O)C2CC2)C1 [compound 590, 5-[4-(3-Chloro-1-methyl-1H-indazol-6-yl)-2-methylphenyl]-6-{[1-(cyclopropylcarbonyl)azetidin-3-yl]methyl}-4,6-diazaspiro[2.4]hept-4-en-7-one]
11 | -9 | > 10 | > 10 | > 10 | Cn1ncc2cc(-c3ccc(C4=NC5(CCOC5)C(=O)N4CC4CN(C(=O)C(F)(F)F)C4)cc3)ccc21 (stereo not drawn) [compound 937, 2-(4-(1-methyl-1H-indazol-5-yl)phenyl)-3-((1-(2,2,2-trifluoroacetyl)azetidin-3-yl)methyl)-7-oxa-1,3-diazaspiro[4.4]non-1-en-4-one]
12 | 14 | > 10 | > 10 | > 10 | O=C(C1CC1)N1CC(CN2C(=O)C3(CC3)N=C2c2ccc(-c3ccc4c(cnn4C4COC4)c3)cc2)C1 [compound 788, 6-((1-(cyclopropanecarbonyl)azetidin-3-yl)methyl)-5-(4-(1-(oxetan-3-yl)-1H-indazol-5-yl)phenyl)-4,6-diazaspiro[2.4]hept-4-en-7-one]
13 | 63 | 4.17 | > 10 | > 10 | COC(=O)N1CC[C@@H](CN2C(=O)C3(CCOC3)N=C2c2ccc(-c3ccc4cccnc4c3)cc2)C1 (stereo partly drawn) [compound 683, Methyl (3S)-{[4-oxo-2-(4-quinolin-7-ylphenyl)-7-oxa-1,3-diazaspiro[4.4]non-1-en-3-yl]methyl}pyrrolidin-1-carboxylate]
14 | 62 | ~4.68 | ~4.07 | ~3.98 | Cc1cc(-c2ccc3c(cnn3C)c2)ccc1C1=NC2(CC2)C(=O)N1CC1CN(C(=O)c2nccs2)C1 [compound 518, 5-[2-Methyl-4-(1-methyl-1H-indazol-5-yl)phenyl]-6-{[1-(1,3-thiazol-2-ylcarbonyl)azetidin-3-yl]methyl}-4,6-diazaspiro[2.4]hept-4-en-7-one]
15 | 33 | > 10 | > 10 | > 10 | Cn1cc(-c2ccc(-c3ccc(C4=NC5(CCOC5)C(=O)N4CC4CCN(C(=O)C(F)(F)F)C4)cc3)cc2)cn1 (stereo not drawn) [compound 940, 2-(4′-(1-methyl-1H-pyrazol-4-yl)-[1,1′-biphenyl]-4-yl)-3-((1-(2,2,2-trifluoroacetyl)pyrrolidin-3-yl)methyl)-7-oxa-1,3-diazaspiro[4.4]non-1-en-4-one]
16 | 79 | 1.66 | > 10 | 2.88 | O=C(C1CC1)N1CC(CN2C(=O)C3(CC3)N=C2c2ccc(-c3ccc4c(cnn4C4CC4)c3)cc2F)C1 [compound 522, 6-{[1-(Cyclopropylcarbonyl)azetidin-3-yl]methyl}-5-[4-(1-cyclopropyl-1-indazol-5-yl)-2-fluorophenyl]-4,6-diazaspiro[2.4]hept-4-en-7-one]
17 | 2 | > 10 | > 10 | > 10 | Cn1cc(-c2ccc(-c3ccc(C4=NC5(CCOCC5)C(=O)N4C[C@@H]4CCN(S(C)(=O)=O)C4)cc3)cc2)cn1 [compound 918, (S)-2-(4′-(1-metrhyl-1H-pyrazol-4-yl)-[1,1′-biphenyl]-4-yl)-3-((1-(methylsulfonyl)pyrrolidin-3-yl)methyl)-8-oxa-1,3-diazaspiro[4.5]dec-1-en-4-one]
18 | 62 | ~10.2 | > 10 | > 10 | COC(=O)N1CC[C@@H](CN2C(=O)C3(CN(C(=O)OC)C3)N=C2c2ccc(-c3ccc4cccnc4c3)cc2)C1 [compound 963, (S)-methyl 7-((1-(methoxycarbonyl)pyrrolidin-3-yl)methyl)-8-oxo-6-(4-(quinolin-7-yl)phenyl)-2,5,7-triazaspiro[3.4]oct-5-ene-2-carboxylate]
19 | 8 | > 10 | > 10 | > 10 | COC(=O)N1CC2(C1)N=C(c1ccc(-c3ccc(-c4cnn(C)c4)cc3)cc1)N(C[C@@H]1CCN(S(C)(=O)=O)C1)C2=O [compound 891, (S)-methyl 6-(4′-(1-methyl-1H-pyrazol-4-yl)-[1,1′-biphenyl]-4-yl)-7-((1-(methylsulfonyl)pyrrolidin-3-yl)methyl)-8-oxo-2,5,7-triazaspiro]3.4[ovt-5-ene-2-carboxylate]
20 | 83 | 1.15 | > 10 | 2.19 | Cc1nc2ccc(-c3ccc(C4=NC5(CC5)C(=O)N4CC4CN(C(=O)C5CC5)C4)c(F)c3)cc2n1C [compound 654, 6-{[1-(Cyclopropylcarbonyl)azetidin-3-yl]methyl}-5-[4-(1,2-dimethyl-1H-benzimidazol-6-yl)-2-fluorophenyl]-4,6-diazaspiro[2.4]hept-4-en-7-one]
21 | 13 | > 10 | > 10 | > 10 | COC(=O)N1CC2(C1)N=C(c1ccc(-c3ccc4occc4c3)cc1)N(C[C@@H]1CCN(C(=O)c3nccs3)C1)C2=O [compound 957, (R)-methyl 6-(4-(benzofuran-5-yl)phenyl)-8-oxo-7-((1-(thiazole-2-carbonyl)pyrrolidin-3-yl)methyl)-2,5,7-triazaspiro[3.4]oct-5-ene-2-carboxylate]
